Read-outs that look alike come from different tables or passages of the source. Values belong to the compound of their own block, whether it stands above or below them.
Experiments:
full length human CD39L3 [1] = molecular target: T1, full length human CD39L3 (Homo sapiens, UniProt O75355); test: Piper Phosphate Assay of CD39L3 nucleotide hydrolysis activity in transiently transfected HEK293 cells; assay type: biochemical; conditions: HEK293 cells transiently transfected with full length human CD39L3, read-out: IC50, inhibition of CD39L3
T1 construct: Cells were transiently transfected with the full length human CD39L3 clone; expressed in transfected cells; host or cells: HEK293 cells, transiently transfected; frozen and thawed intact cells
T1 sequence (O75355 1-529 A496V): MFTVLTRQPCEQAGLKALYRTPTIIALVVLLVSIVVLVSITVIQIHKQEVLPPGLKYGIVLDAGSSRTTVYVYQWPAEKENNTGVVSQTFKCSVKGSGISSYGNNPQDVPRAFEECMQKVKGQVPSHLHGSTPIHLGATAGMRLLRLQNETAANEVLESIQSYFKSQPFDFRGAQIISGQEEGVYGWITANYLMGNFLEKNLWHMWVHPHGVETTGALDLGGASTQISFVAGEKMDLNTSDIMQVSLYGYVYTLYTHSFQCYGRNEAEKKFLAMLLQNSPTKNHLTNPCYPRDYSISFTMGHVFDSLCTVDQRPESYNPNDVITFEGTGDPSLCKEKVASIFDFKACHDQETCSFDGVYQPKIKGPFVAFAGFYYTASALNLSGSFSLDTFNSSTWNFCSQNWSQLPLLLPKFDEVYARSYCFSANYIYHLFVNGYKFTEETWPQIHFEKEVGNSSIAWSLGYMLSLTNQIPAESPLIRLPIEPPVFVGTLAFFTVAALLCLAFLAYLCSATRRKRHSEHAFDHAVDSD
Method: (§1) FIG. 4 illustrates the Km of ATP determined for full length human CD39L3 in transiently transfected HEK293 cells. The Km of ATP values determined under two concentrations of each cation source: CaCl2 and MgCl2. […] Activity assays were performed with the Piper Phosphate Assay (Molecular Probes).
(§2) FIG. 5 illustrates the Km of ADP determined for full length human CD39L3 in transiently transfected HEK293 cells. The Km of ADP values determined under two concentrations of each cation source: CaCl2 and MgCl2. […] Activity assays were performed with the Piper Phosphate Assay (Invitrogen).
(§3) FIG. 6 illustrates the inhibition of CD39L3 examined with the general ectoATPase inhibitor, ARL 67156. HEK293 cells were transiently transfected with full length human CD39L3. […] Activity assays were performed with the Piper Phosphate Assay (Molecular Probes).
(§4) As the activity of CD39L3 involves the hydrolysis of nucleoside triphosphates and diphosphates, Molecular Probes' Piper Phosphate Assay Kit™, which is an assay that detects free phosphate, a product of the hydrolysis, was used.
(§5) Cells were transiently transfected with the full length human CD39L3 clone were measured for nucleotide hydrolysis activity in suspension or adhered to the plate, within an isotonic buffer including the required cation cofactor, calcium or magnesium. Batches of transiently transfected CD39L3 cells were produced and frozen until use.
(§6) Using cells that were frozen and thawed, the Piper Phosphate Assay was used to determine the Km of ATP and ADP for the full length human CD39L3 clone (FIGS. 4 and 5). In addition, to validate the detection of an inhibitor with this assay format, a general ectoATPase inhibitor, ARL 67156, was examined.

full length human CD39L3 [2] = molecular target: T2, full length human CD39L3 (Homo sapiens, UniProt O75355, A496V); test: as above; assay type: biochemical
T2 construct: Cells were transiently transfected with the full length human CD39L3 clone; expressed in transfected cells; host or cells: HEK293 cells, transiently transfected; frozen and thawed intact cells
T2 sequence (O75355 1-529 A496V): T1 sequence (O75355 1-529 A496V)
Method: as §1, §2, §3, §4, §5, §6

SMILES: CCN(CC)c1ncnc2c1ncn2[C@@H]1O[C@H](COP(=O)(O)OP(=O)(O)C(Br)(Br)P(=O)(O)O)[C@@H](O)[C@H]1O [ARL 67156]
IC50 (full length human CD39L3 [1]; 40 uM ADP+5 mM CaCl2): 59 µM | IC50 (full length human CD39L3 [1]; 40 uM ADP+5 mM MgCl2): 57 µM | IC50 (full length human CD39L3 [1]; 65 μM ATP+5 mM CaCl2): 49 µM | IC50 (full length human CD39L3 [1]; 65 uM ATP+5 mM MgCl2): 59 µM

Km (full length human CD39L3 [2]; 1 mM CaCl2, read-out: Km of ADP): 42 µM | Km (full length human CD39L3 [2]; 1 mM MgCl2, read-out: Km of ADP): 35 µM | Km (full length human CD39L3 [2]; 5 mM CaCl2, read-out: Km of ADP): 39 µM | Km (full length human CD39L3 [2]; 5 mM MgCl2, read-out: Km of ADP): 44 µM
SMILES: Nc1ncnc2c1ncn2[C@@H]1O[C@H](COP(=O)(O)OP(=O)(O)O)[C@@H](O)[C@H]1O [ADP]

Km (full length human CD39L3 [2]; 1 mM CaCl2, read-out: Km of ATP): 105 µM | Km (full length human CD39L3 [2]; 1 mM MgCl2, read-out: Km of ATP): 60 µM | Km (full length human CD39L3 [2]; 5 mM CaCl2, read-out: Km of ATP): 85 µM | Km (full length human CD39L3 [2]; 5 mM MgCl2, read-out: Km of ATP): 52 µM
SMILES: Nc1ncnc2c1ncn2[C@@H]1O[C@H](COP(=O)(O)OP(=O)(O)OP(=O)(O)O)[C@@H](O)[C@H]1O [ATP]
